Reference: PMC7155171, “Probing the Open Global Health Chemical Diversity Library for Multistage-Active Starting Points for Next-Generation Antimalarials” (ACS Infectious Diseases, 2020)
Read-outs that look alike come from different tables or passages of the source.

Key:
P. falciparum Dd2 = assay: SYBR green I asexual blood stage proliferation assay (96 h); format: cell-based, Plasmodium falciparum; settings: Plasmodium falciparum, DD2, 11-pt dose response, 96hr
[1] = test system: P. falciparum Dd2 (PfLuc) line expressing firefly luciferase, asexual blood stage; assay: microbe, parasite or virus in culture; format: cell-based, Plasmodium falciparum; settings: Plasmodium falciparum
[2] = Sybr Green I, read-out: CDD P. falciparum Sybr Green I ABS 11-pt Reconfirmation Dose Response (96hr): IC50
[3] = Sybr Green I, read-out: CDD P. falciparum Sybr Green I ABS 11-pt Reconfirmation Dose Response (96hr): Maximum inhibition (%)
[4] = DD2, read-out: CDD P. falciparum Luciferase ABS 11-pt Reconfirmation Dose Response (48hr): IC50 (μM), 11-pt dose response, 48hr
[5] = DD2, 8-pt dose response, 96hr, read-out: CDD P. falciparum Luciferase ABS 8-pt Reconfirmation Dose Response (96hr): IC50
[6] = DD2, 8-pt dose response, 96hr, read-out: CDD P. falciparum Luciferase ABS 8-pt Reconfirmation Dose Response (96hr): Maximum inhibition (%)
[7] = DD2, 11-pt dose response, 48hr, read-out: CDD P. falciparum Luciferase ABS 11-pt Reconfirmation Dose Response (48hr): Maximum inhibition (%)
[8] = DD2, 11-pt dose response, 96hr, read-out: CDD P. falciparum Luciferase ABS 11-pt Reconfirmation Dose Response (96hr): IC50
[9] = DD2, 11-pt dose response, 96hr, read-out: CDD P. falciparum Luciferase ABS 11-pt Reconfirmation Dose Response (96hr): Maximum inhibition (%)
[10] = read-out: P. falciparum Sybr Green I ABS 11-pt Reconfirmation Dose Response (96hr): IC50
[11] = read-out: P. falciparum Sybr Green I ABS 11-pt Reconfirmation Dose Response (96hr): Maximum inhibition (%)
[12] = DD2, read-out: P. falciparum Luciferase ABS 11-pt Reconfirmation Dose Response (48hr): IC50, 11-pt dose response, 48hr
[13] = DD2, 8-pt dose response, 96hr, read-out: P. falciparum Luciferase ABS 8-pt Reconfirmation Dose Response (96hr): IC50
[14] = DD2, 8-pt dose response, 96hr, read-out: P. falciparum Luciferase ABS 8-pt Reconfirmation Dose Response (96hr): Maximum inhibition (%)
[15] = DD2, 11-pt dose response, 48hr, read-out: P. falciparum Luciferase ABS 11-pt Reconfirmation Dose Response (48hr): Maximum inhibition (%)
[16] = DD2, 11-pt dose response, 96hr, read-out: P. falciparum Luciferase ABS 11-pt Reconfirmation Dose Response (96hr): IC50
[17] = DD2, 11-pt dose response, 96hr, read-out: P. falciparum Luciferase ABS 11-pt Reconfirmation Dose Response (96hr): Maximum inhibition (%)

Row | SMILES | IC50 (P. falciparum Dd2; [2]) [nM] | Emax (P. falciparum Dd2; [3]) [%] | IC50 [1, 4] [µM] | IC50 [1, 5] [µM] | Emax [1, 6] [%] | Emax [1, 7] [%] | IC50 [1, 8] [µM] | Emax [1, 9] [%] | IC50 (P. falciparum Dd2; [10]) [nM] | Emax (P. falciparum Dd2; [11]) [%] | IC50 [1, 12] [µM] | IC50 [1, 13] [µM] | Emax [1, 14] [%] | Emax [1, 15] [%] | IC50 [1, 16] [µM] | Emax [1, 17] [%]
1 | Clc1cccc(N[C@H]2CCCN[C@H]2Cc2ccccc2)c1 [DDD01058816] | 3540 | 94.8 | 1.92 | 1.06 | 95.6 | 100 | 0.64 | 101 |  |  |  |  |  |  |  | 
2 | Cc1cc(CN2CCc3nc(-c4ccncc4)nc(O)c3CC2)c(C)s1 [DDD01058881] |  |  |  |  |  |  |  |  | 6280 | 78.2 | 9.43 | 1.72 | 88.5 | 79 | 2.93 | 93.4
3 | FC(F)(F)c1cc(C2CCNCC2)nc(-c2ccsc2)n1 [DDD01058935] | 4360 | 60.5 | > 12.5 | 0.67 |  | 64.4 | > 1.39 | 92.1 |  |  |  |  |  |  |  | 
4 | CC(C)(C)C(=O)N1C[C@H](c2ccsc2)[C@H]2CN(C3CCCCC3)CC[C@H]21 [DDD01058940] | 8800 | 74.2 | > 12.5 | 0.84 | 83.6 | 59.1 | 2.03 | 90.2 |  |  |  |  |  |  |  | 
5 | Cc1ccc(C2(CN3CCN(Cc4cnc(C)n4C)CC3)CC2)cc1 [DDD01059041] | 1320 | 88.5 | 1.95 | 0.25 |  | 77.8 | 0.532 |  |  |  |  |  |  |  |  | 
6 | CN(C)CCN(C)C(=O)Cn1cccc2cc(-c3ccc(F)cc3)nc1-2 [DDD01059044] | 1170 | 99.6 | 1.87 | 0.54 | 95.7 | 95.1 | 1.9 | 98.3 |  |  |  |  |  |  |  | 
7 | Cc1cccc(Nc2cccc(C3CCCN(Cc4ncc[nH]4)C3)n2)n1 (stereo not drawn) [DDD01059475] | 965 | 92.2 | 1.69 | 1.07 | 95.8 | 98.9 | > 1.39 | 100 |  |  |  |  |  |  |  | 
8 | CC(C)CNC(=O)C1(Cc2ccccc2-c2cccs2)CCNC1 (stereo not drawn) [DDD01059689] | > 12500 | 45.7 | > 12.5 | 0.92 | 73.8 | 49.4 | > 1.39 | 87.3 |  |  |  |  |  |  |  | 
9 | N[C@@H]1CCC[C@@H](Oc2ccc(F)cc2Oc2ccccc2)[C@@H]1O [DDD01059731] | 4960 | 86.9 | > 1.4 | 0.69 | 93.5 | 89.8 | > 1.39 | 98.4 |  |  |  |  |  |  |  | 
10 | Cc1ccc(Oc2cc(F)ccc2O[C@@H]2CCC[C@@H](N)[C@H]2O)cc1 [DDD01059749] | 2270 | 95.9 | 2.7 | 0.54 | 92.7 | 98 | > 1.39 | 100 |  |  |  |  |  |  |  | 
11 | Cc1cccnc1CN1CC[C@H](Oc2cccc(F)c2)[C@@](C)(O)C1 [DDD01060871] | 2590 | 82.8 | 1.92 | 0.92 | 90.5 | 93.1 | 0.553 | 100 |  |  |  |  |  |  |  | 
12 | CC1(C)CC(N(Cc2cccnc2)Cc2cccc(F)c2)CC(C)(C)N1 [DDD01060979] | 8550 | 79.9 | 3.32 | 0.3 | 88 |  | > 1.39 | 98.4 |  |  |  |  |  |  |  | 
13 | Cc1ccsc1CN(Cc1cccnc1)C1CC(C)(C)NC(C)(C)C1 [DDD01060982] | > 4160 | 70.5 | 4.19 | 1.04 | 88.1 | 61.9 | 1.59 | 95.6 |  |  |  |  |  |  |  | 
14 | Cc1ccsc1CN(CCCN(C)C)Cc1ccccn1 [DDD01060996] | > 12500 | 46.2 | > 12.5 | 0.55 | 79.6 | 51.6 | 3.57 | 82.3 |  |  |  |  |  |  |  | 
15 | COc1ccc(C(C)NCc2ccsc2)cc1Cn1cccn1 (stereo not drawn) [DDD01061827] | > 4160 | 58.7 | > 12.5 | 0.79 | 81.9 | 38.8 | 1.78 | 68.9 |  |  |  |  |  |  |  | 
16 | Cc1ccc(CNC(C)c2cc(F)ccc2N2CCN(C)CC2)o1 (stereo not drawn) [DDD01061881] | 2420 |  | 3.93 | 0.41 | 90.7 | 87.5 | 2.12 | 97.7 |  |  |  |  |  |  |  | 
17 | Cc1cnn(CCNCc2nccn2Cc2ccccc2)c1 [DDD01062085] | > 12500 | 51.3 | 10.4 | 0.53 |  | 75 | 1.22 | 95.2 |  |  |  |  |  |  |  | 
18 | CN1CCC(N(Cc2ccco2)S(=O)(=O)c2ccc(Br)cc2Cl)CC1 [DDD01063208] | 10600 | 54.5 | > 12.5 | 0.58 | 76.6 | 21.3 | 2.19 | 81.7 |  |  |  |  |  |  |  | 
19 | Cc1ccc(CN(c2cc(C)nc3nc(C(F)(F)F)nn23)C2CC2)cc1 [DDD01063654] | 2100 |  | 2.34 | 0.37 |  | 89.4 | 0.45 | 99.7 |  |  |  |  |  |  |  | 
20 | CN(Cc1cc(F)cc2cccnc12)CC1CCN(CCO)CC1 [DDD01063806] | 1110 | 93.2 | 3.63 | 0.92 | 93.1 | 96.1 | 2.11 | 100 |  |  |  |  |  |  |  | 
21 | CN(Cc1cc(Cl)cc2cccnc12)CC1CCN(CCO)CC1 [DDD01063807] | 584 | 95.8 | 2.2 | 0.36 | 94.1 | 97.5 | 1.42 | 100 |  |  |  |  |  |  |  | 
22 | c1cc(N2CCC(CN3CCOCC3)CC2)c2sccc2n1 [DDD01064806] |  |  |  |  |  |  |  |  | 1150 | 100 | 1.38 | 1.43 | 94.6 | 99.7 | 1.12 | 100
